Results on four compounds are retold here after patent publication US20220331219A1, “METHODS AND COMPOSITIONS FOR PROVIDING SKIN CARE BENEFITS” (DANISCO US INC., priority 2019, published 2022).

Each structure is given as a SMILES string. Marks after values point to notes of the source that are not given here.

Series [1] relates to Phenion® Full-Thickness (FT) Skin Model. As to the kind of experiment: Lipidomic profile of skin model after topical treatment (LC-MS). Format: cell-based, human.
The nature of series [2]: MVL*H2O solubility in water (equilibrium DS content). Format: physicochemical. To be noted: calculated to purity 100. As for the experimental part: Solubility is one property to characterize a crystalline compound. Crystallization is possible only above solubility concentration in supersaturated syrups. Solubility determines minimal DS concentration for the crystallization at given temperatures. The solubility is determined by standard methods like analyzing the equilibrium concentration from crystal suspension.
Equilibrium DS contents were measured and calculated between 0-20° C. range (Table 14).

In series [3] the test system is reconstructed human epidermis (RHE). The series can be described thus: Caffeine diffusion test ([14C]-caffeine diffusion, barrier function). Type of series: cell-based. To be noted: for Barrier function (% control) / [14C]-caffeine diffusion, % control / [14C]-caffeine diffusion, Mean (cpm): systemic, 7 days. The procedure: A test referred to as “caffeine diffusion test” was performed, which consists of the measurement of the effect of compounds mevalonolactone (MVL) on the skin barrier reinforcement. It is one method to measure skin barrier function (strength) as when the skin barrier has been strengthened, the amount of penetrating tracer molecules decreases (i.e. if skin is damaged more, the easier the tracer penetrates the skin). In this study, the effect of mevalonolactone, was assessed on [^14C]-caffeine diffusion through reconstructed human epidermis (RHE) under basal condition, in order to evaluate the skin barrier function. Caffeine diffusion is inversely proportional to barrier function. RHE (RHE, 0-day-old, Bioalternatives reference: EPI-Ba, batch n° 01015-515) were cultured under the following conditions: 37° C., 5% CO2, and the culture media was the Bioaltematives maintenance medium. The tested MVL concentration were 0.001%, 0.005% and 0.01% by weight of assay medium, in systemic way (added to the culture media).
RHE at day 0 were placed at the air/liquid interface in culture medium containing or not (control) the test compounds, their association or the reference (vitamin C at 200 μg/ml) (systemic application). RHE were then, incubated for 7 days with treatment renewals at day 3 and day 5. All experimental conditions were performed in n=3.
At the end of incubation (D7), radioactive caffeine ([^14C]-caffeine) was applied onto the surface of each epidermis. The radioactivity contained in subnatants was measured by liquid scintillation according to the following kinetic: 30 minutes, 1 and 2 hours.
Raw data were analyzed using Microsoft Excel® software and GraphPad PRISM® software. The inter-group comparisons were performed by an unpaired Student's t-test. The statistical analysis can be interpreted if n≥5, however for n<5 the statistical values are for information only. Formulas used in this report:
Standard error of the mean: sem=Sd/√n; Barrier function: […]

Series [4] deals with female Caucasian subjects with dry skin. The series can be described thus: Skin transepidermal water loss (TEWL) after topical cream application (skin barrier function). Type of series: in vivo, human. To be noted: for Δ TEWL MVL (MVL cream zone − placebo cream zone): normalized to control and placebo, 1% MVL cream pH 5.5; for Δ TEWL MVL (Dx-D0): normalized to control, placebo and baseline D0. As for the experimental part:
Mevalonolactone was obtained and purified as described herein and formulated in a standard cosmetic base, at 1% of total composition by weight, resulting in cosmetic a composition (such as but not limited to a cosmetic cream). […] The base cream formula can be any formula well known to one skilled in the art.
Two separated studies were performed. Study 1 consisted of measuring the skin transepidermal water loss after topical application of the cosmetic creams (a cream with 1% MVL of total composition by weight called “MVL cream” and the control cream which was the same cream without MVL called “placebo”) formulated at pH=5.5, the skin physiological pH.
The cosmetic formulations comprising MVL as the active ingredient and the placebo treatment were applied to 6 female Caucasian subjects with dry skin (electrical capacitance<50 A.U.) by topical application.
For 2 weeks, each subject applied the MVL containing formulation and placebo formulation according to randomization. twice a day (in the morning and in the evening), under normal conditions of use (on clean skin, by slight massage until complete penetration), on delimited zones on their forearms.
Evaluation of the efficacy of the treatment was conducted by measuring the evolution of the transepidermal water loss of the skin induced by the cosmetic compositions on the skin. Water loss of the skin was determined by measurement of Trans Epidermal Water Loss (T.E.W.L. g/m^2/h) which is a non-invasive method to assess the integrity of the stratum corneum barrier function, by quantifying the water exchanges between the skin and the environment (Loden M. et al., 1992, British J of Dermatol 1992; 126: 137-141). Damage of the stratum corneum results in an increase in the T.E.W.L., leading to a more pervious skin. This method enables to assess and compare the protective effect of cosmetic investigational compositions on the cutaneous barrier between themselves, after repeated applications. and in comparison, with a control area (non-treated) and with values obtained before any products application.
In this study, the TEWL (g/m^2/h) was assessed at 5 different time points (Day 0 (baseline before product application). […]

The mark [5] stands for this setting: 13% MVL solution in DPBS, 20 μl topical, 24 hours, vs control without MVL.
Where [6] appears, read: MVL treated skin tissue, 24 hours.

Consider `C[C@@](O)(CCO)CC(=O)O` [MVA, (3R)-3,5-Dihydroxy-3-methylpentanoic acid], for which, in series [1] (MVA treated skin model), the “cholesterol amount (in words)” value is “stay stable”. Besides, in series [1] (topical MVA, exact same test condition as Example 26), the “cholesterol/cholesterol sulfate ratio (in words)” value was “decrease”. The “MVA treatment effect: Ratio Cholesterol/Cholesterol sulfate” value in series [1] (topical MVA, exact same test condition as Example 26, p = 0.088) is “−”.
Take `CC1(O)CCOC(=O)C1.O` (stereo not shown) [MVL* H2O, Mevalonolactone monohydrate]: the solubility in series [2] (0 °C) is reported as 43.9 % DS; in series [2] (4.8 °C), 52.3 % DS; in series [2] (9.8 °C) it was 61.2 % DS; in series [2] (15.0 °C), 70.6 % DS; in series [2] (20.0 °C), 79.7 % DS.
Consider `C[C@@]1(O)CCOC(=O)C1` [MVL, (R)-3-Hydroxy-3-methyl-δ-valerolactone], for which, in series [3] (0.001%, 30 min), the “Barrier function (% control)” value turned out to be 128 % control; the “[14C]-caffeine diffusion, % control” value is 77 % control; the “[14C]-caffeine diffusion, Mean (cpm)” value is recorded as 14907 cpm. In series [3] (0.001%, 1 hour), the “Barrier function (% control)” value came to 106 % control; the “[14C]-caffeine diffusion, % control” value is listed as 94 % control; the “[14C]-caffeine diffusion, Mean (cpm)” value stood at 48423 cpm. In series [3] (0.001%, 2 hours), the “Barrier function (% control)” value turned out to be 99 % control; the “[14C]-caffeine diffusion, % control” value was 101 % control; the “[14C]-caffeine diffusion, Mean (cpm)” value amounted to 117165 cpm. For the same compound, in series [3] (0.005%, 30 min), the “Barrier function (% control)” value was found to be 113 % control; the “[14C]-caffeine diffusion, % control” value came out at 87 % control; the “[14C]-caffeine diffusion, Mean (cpm)” value was determined as 16927 cpm. In series [3] (0.005%, 1 hour), the “Barrier function (% control)” value is listed as 93 % control; the “[14C]-caffeine diffusion, % control” value came to 107 % control; the “[14C]-caffeine diffusion, Mean (cpm)” value worked out at 55034 cpm. Moreover, in series [3] (0.005%, 2 hours), the “Barrier function (% control)” value was 95 % control; the “[14C]-caffeine diffusion, % control” value is listed as 106 % control; the “[14C]-caffeine diffusion, Mean (cpm)” value stood at 122324 cpm. Further, in series [3] (0.01%, 30 min), the “Barrier function (% control)” value is on record as 97 % control; the “[14C]-caffeine diffusion, % control” value was found to be 102 % control; the “[14C]-caffeine diffusion, Mean (cpm)” value is given as 19700 cpm. Further, in series [3] (0.01%, 1 hour), the “Barrier function (% control)” value is listed as 96 % control; the “[14C]-caffeine diffusion, % control” value is reported as 104 % control; the “[14C]-caffeine diffusion, Mean (cpm)” value stood at 53545 cpm. For the same compound, in series [3] (0.01%, 2 hours), the “Barrier function (% control)” value came out at 99 % control; the “[14C]-caffeine diffusion, % control” value amounted to 101 % control; the “[14C]-caffeine diffusion, Mean (cpm)” value worked out at 116509 cpm. This compound showed a Δ TEWL MVL (MVL cream zone − placebo cream zone) in series [4] (D0) of 2.06 g/m²/h. The “Δ TEWL MVL (Dx-D0)” value in series [4] (D1-D0) is given as −0.27. Besides, the Δ TEWL MVL (MVL cream zone − placebo cream zone) in series [4] (D1) was 1.79 g/m²/h. Further, in series [4] (D3-D0), the “Δ TEWL MVL (Dx-D0)” value is recorded as −0.74. In addition, the Δ TEWL MVL (MVL cream zone − placebo cream zone) in series [4] (D3) turned out to be 1.32 g/m²/h. Besides, the “Δ TEWL MVL (Dx-D0)” value in series [4] (D7-D0) is recorded as −1.11. The compound further yielded a Δ TEWL MVL (MVL cream zone − placebo cream zone) in series [4] (D7) of 0.95 g/m²/h. The “Δ TEWL MVL (Dx-D0)” value in series [4] (D15-D0) is given as −1.04. The Δ TEWL MVL (MVL cream zone − placebo cream zone) in series [4] (D15) came out at 1.02 g/m²/h. The “skin trans epidermal water loss (in words)” value in series [4] (topically applied, after 2 weeks of repeated application) is recorded as “decreases the skin trans epidermal water loss”. Also, in series [1] (setting [5]), the “MVL treatment effect: CE-Cholesterol Esters” value is “+”, the “MVL treatment effect: CL-CardioLipin*” value is given as “−”, the “MVL treatment effect: DAG-Diacylglycerol” value is “−” and the “MVL treatment effect: HexCer-Hexosylceramide*” value is given as “+”. Besides, in series [1] (setting [5]), the “MVL treatment effect: LPE*” value was “−”; the “MVL treatment effect: LPE-0” value was “−”; the “MVL treatment effect: LPG-lyso-PG” value is reported as “−”; the “MVL treatment effect: PA-Phosphatidate (PA and LPA)” value was “+”. In addition, in series [1] (setting [5]), the “MVL treatment effect: PC Phosphatidylcholine (PC 15:1;0_16:0;0*)” value is listed as “+”; the “MVL treatment effect: PC-O- Phosphatidylcholine-ether (PC-O 16:1;0/18:2;0, plasmalogen)” value was “+”; the “MVL treatment effect: PE (species listed, *)” value was “−”; the “MVL treatment effect: PE O-16:1;0/18:1;0*” value is “−”. For the same compound, in series [1] (setting [5]), the “MVL treatment effect: PI-Phosphatidylinositol” value was “−”; the “MVL treatment effect: Phosphatidylglycerol (PG species listed, *)” value is recorded as “−”; the “MVL treatment effect: TAG-Triacylglycerol (TAG 47:2;0)” value is recorded as “+”. Besides, in series [1] (setting [6]), the “Cholesterol level (in words)” value is recorded as “unchanged”, the “PG/CL versus control samples (in words)” value is “significant decrease”, the “ceramides level (in words)” value was “unchanged” and the “cholesterol esters (CE) versus control samples (in words)” value is on record as “significant increase”. For the same compound, in series [1] (setting [6]), the “diacylglycerol (DAG) versus control samples (in words)” value is on record as “significant decrease”, the “hexosylceramide (HexCer) versus control samples (in words)” value is given as “significant increase”, the “phosphatidate (PA) versus control samples (in words)” value was “significant increase” and the “phosphatidylcholine-ether (PC-O) versus control samples (in words)” value was “significant increase”. Besides, in series [1] (setting [6]), the “phosphatidylcholines (PC) versus control samples (in words)” value is “significant increase”; the “phosphatidylethanolamine-ethers (LPE, LPE-O, PE-O) versus control samples (in words)” value is reported as “significant decrease”; the “phosphatidylinositol versus control samples (in words)” value is recorded as “significant decrease”; the “phosphatidylserine (PS) level (in words)” value is “unchanged”. Also, in series [1] (setting [6]), the “ratio cholesterol/chol sulfate (in words)” value was “unchanged”, the “sphingomyelin (SM) level (in words)” value is given as “unchanged” and the “triacylglycerol (TAG) versus control samples (in words)” value is “significant increase”.
Turning to `O=C1O[C@H]([C@@H](O)CO)C(O)=C1O` [Vitamin C, reference compound], in series [3] (200 μg/ml, systemic treatment), the “caffeine diffusion through RHE (in words)” value is “decreased significantly”. For the same compound, in series [3] (200 microg/ml, 30 min), the “Barrier function (% control)” value is reported as 171** % control; the “[14C]-caffeine diffusion, % control” value stood at 58 % control; the “[14C]-caffeine diffusion, Mean (cpm)” value is reported as 11133 cpm. In series [3] (200 microg/ml, 1 hour), the “Barrier function (% control)” value is recorded as 148** % control; the “[14C]-caffeine diffusion, % control” value was found to be 68 % control; the “[14C]-caffeine diffusion, Mean (cpm)” value came to 34839 cpm. Also, in series [3] (200 microg/ml, 2 hours), the “Barrier function (% control)” value is given as 128** % control; the “[14C]-caffeine diffusion, % control” value worked out at 79 % control; the “[14C]-caffeine diffusion, Mean (cpm)” value is on record as 90717 cpm.
